Experimental findings from patent publication US20210346312A1, “Flat Product for Microbiological Sanitation of the Urogenital Tract” (Tecuro Medical GmbH, priority 2018, published 2021) are described below.

This series concerns Reconstituted human 3D EpiVaginal models. The series can be described thus: Cytotoxicity test (MTT assay, based on DIN ISO 10993-5). It counts as cell-based. As to conditions: positive control, 1%, typical value. The procedure: To determine the compatibility of a planar product for treatment of the urogenital tract, the Cytotoxicity Test described below can be used. It is based on the standard DIN ISO 10993-5.
Reconstituted human 3D EpiVaginal models (e.g., MatTek) are used. To this end, an element of 6 mm in diameter from a planar product according to the invention is topically applied to the 3D EpiVaginal skin models and incubated on the models for 3 and 18 hours. Skin models treated with sterile water are used as negative control, and skin models treated with the […] surfactant Triton X-100 (1%) are used as positive control. The vitality of the skin models is evaluated in the MTT assay (3-(4,5-dimethylthiazol-2-yl)-2,5-diphenyltetrazolium bromide) (see Stockert et al. Acta Histochemica 120: 159-167 (2018), doi: 10.1016/j.acthis.2018.02.005; Chacon et al. In Vitro Methods in Pharmaceutical Research, ISBN 9780080534602 and https://en.wikipedia.org/wiki/MTT_assay). This involves setting the vitality value of the negative control to 100%. […] According to the invention, what is considered to be an acceptable value is typically a vitality of >80% after 18 h.

For Triton X-100, the “vitality after 3 h of incubation” value (3 h) came to 25%. The “vitality after 18 h” value (18 h) was “less than 10%”.
